Source: PubChem BioAssay (NCI)
“And” between values parts separate entries of the source, which are not always exact repeats. Identical values can stand only once.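 48-hour exposure; five concentrations; linearly interpolated endpoints. GI50 is the concentration that inhibits growth by half. TGI marks complete inhibition of growth.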

tested on: HOP-92 NSCLC; assay: inhibition of tumour cell growth, NCI panel, 48 h

| SMILES | TGI | GI50 [µM] |
| --- | --- | --- |
| O=C1CCC(O)=C1N=Nc1ccccc1 | > 100 µM | – |
| CCN(CC)c1ccc(N=Nc2ccc(-c3nc4ccc[n+](C)c4s3)cc2)cc1 | 30.1 µM | – |
| NC(=O)NCc1c(C(N)=O)ncn1Cc1ccccc1 | > 100 µM | – |
| O=C1CSC(/C(=N/Nc2ccccc2)c2nc3ccccc3[nH]2)=N1 | 49.7 µM | – |
| O=C(c1ccccc1)C1OC12C(=O)Nc1ccccc12 (configuration not stated) | 55.2 µM | – |
| COc1ccc2nc(NC(=O)C(=O)C(C#N)c3ccc([N+](=O)[O-])cc3)sc2c1 (configuration not stated) | > 100 µM | – |
| O=C(O)[C@H](NS(=O)(=O)c1ccc([N+](=O)[O-])cc1)c1ccccc1 | > 100 µM | – |
| CC(C)C[C@H](NC(=O)/C=C/Cn1ccc2ccccc2c1=O)B(O)O | 30.4 µM | 6.49 |
| S=C1OC2CCCC[C@H]2O1 (some centres not stated) | > 100 µM | – |
| O=C1/C(=C/c2cccc([N+](=O)[O-])c2)COc2ccc(Br)cc21 | > 100 µM | – |
| CSC(C1c2ccccc2N(c2ccc(C)cc2)c2[nH]c(=O)n(C)c(=O)c21)S(=O)(=O)c1ccc(C)cc1 (configuration not stated) | > 100 µM | – |
| CCOC(=O)NC(=O)c1cn(CCCOC(=O)CCCCCCCCCCC(=O)OCCCn2cc(C(=O)NC(=O)OCC)c(=O)[nH]c2=O)c(=O)[nH]c1=O | > 100 µM | – |
| O=c1cc(NC2CCN(CCCc3ccccc3)CC2)c2cc(Cl)ccc2o1 | 27.7 µM | 11.9 |
| N#Cc1cccnc1Cl | > 100 µM | – |
| Nc1nc(F)nc2c1ncn2C1OC(CO)C(O)C1O (configuration not stated) | > 100 µM and 97.6 µM | 14 |
| C=CC/C=C/C/C=C/CCCCCCCc1cccc(O)c1C(=O)O | 75 µM | – |
| CCn1c(SCc2ccc(C)cc2)nnc1-c1nn(-c2ccc(Cl)cc2Cl)c(-c2ccc(Cl)cc2)c1C | 4.22 µM | 0.53 |
| CCn1c(-c2ccc(OC(C)=O)cc2)c(C)c2cc(OC(C)=O)ccc21 | > 100 µM | – |
| O=c1cccc(C#CC#CC2=CCCCC2)o1 | > 23 µM | – |
| O=C(Nc1c(Cl)cc([N+](=O)[O-])cc1Cl)C(=O)C(C1OC(=O)c2ccccc21)[N+](=O)[O-] (configuration not stated) | 99.1 µM | – |
| Cc1c(C(=O)/C=C/c2ccccc2)[n+](=O)c2ccccc2n1[O-] | 28 µM | – |
| O=C1Nc2ccc(F)cc2/C1=C/c1ccc[nH]1 | > 25 µM | > 14.1 |
| Br[C](Br)(Br)[Hg][c]1ccccc1 | 25.3 µM | 12.5 |
| C1C[OH+]CC[OH+]CC[OH+]CC[OH+]CC[OH+]1.[Cl-].[V] | > 100 µM | 34.3 |
| COc1ccc(CC2NCCc3cc(OC)c(OC)cc32)cc1Br (configuration not stated) | 61.7 µM | – |
| c1ccc(C2Nc3ccccc3C3OCCCC23)cc1 (configuration not stated) | 70.5 µM | – |
| CCOc1cc(C(C)(C)C)ccc1C1=N[C@@](C)(c2ccc(Cl)cc2)[C@@](C)(c2ccc(Cl)cc2)N1C(=O)N1CCN(CCCS(C)(=O)=O)CC1 | 8.17 µM | 2.31 |

tested on: KM20L2 colon; assay: inhibition of tumour cell growth, NCI panel, 48 h

| SMILES | TGI [µM] | GI50 [µM] |
| --- | --- | --- |
| O=C1[C@@H]2C(c3ccccc3F)=NO[C@@H]2C(=O)N1c1ccc(Cc2ccc(N3C(=O)[C@H]4C(c5ccccc5F)=NO[C@H]4C3=O)cc2)cc1 | > 100 | – |
| C=CCc1ccc(Oc2cc(CC=C)c3c(c2O)O[C@@H](CO)[C@H]3c2ccc(O)c(-c3cc(CC=C)ccc3O)c2)cc1 | 93.5 | – |
| O=C(NCO)NCOCn1c(=O)n(CO)c(=O)n(CO)c1=O | > 94.9 | – |
| Clc1ccc2c(c1)-c1c3c(nn1-c1ccccc1)-c1ccccc1SC3O2 (configuration not stated) | > 100 | – |
| O=C1OC2CCCC[C@@H]2C2C[C@]34CCCCC3[C@@H](C(=O)O4)C12 (some centres not stated) | > 100 | – |
| CN(C)c1cc[c]([Sn]([c]2ccc(N(C)C)cc2)([c]2ccc(N(C)C)cc2)[c]2ccc(N(C)C)cc2)cc1 | 14.8 | 4.3 |
| C=C1C(=O)OC2/C=C(\COC(C)=O)CCC(OC(C)=O)C3=CC(OC3=O)C12 (configuration not stated) | 14.3 | – |
| C/C(N=NC(=S)N(C)C)=C1\C=CC=CN1O | > 100 | – |
| CCCSc1nc(COC(=O)NC)c(COC(=O)NC)n1C | > 100 | – |
| CCN(CC)c1ccc(N=Nc2ccc(-c3nc4ccc[n+](C)c4s3)cc2)cc1 | 19.9 | – |
| NC(=O)NCc1c(C(N)=O)ncn1Cc1ccccc1 | > 100 | – |
| O=C1CSC(/C(=N/Nc2ccccc2)c2nc3ccccc3[nH]2)=N1 | > 100 | – |
| O=C(c1ccccc1)C1OC12C(=O)Nc1ccccc12 (configuration not stated) | 66.8 | – |
| COc1ccc2nc(NC(=O)C(=O)C(C#N)c3ccc([N+](=O)[O-])cc3)sc2c1 (configuration not stated) | > 100 | – |
| O=C(O)[C@H](NS(=O)(=O)c1ccc([N+](=O)[O-])cc1)c1ccccc1 | > 100 | – |
| S=C1OC2CCCC[C@H]2O1 (some centres not stated) | > 100 | – |
| O=C1/C(=C/c2cccc([N+](=O)[O-])c2)COc2ccc(Br)cc21 | > 100 | – |
| CSC(C1c2ccccc2N(c2ccc(C)cc2)c2[nH]c(=O)n(C)c(=O)c21)S(=O)(=O)c1ccc(C)cc1 (configuration not stated) | > 100 | – |
| CCOC(=O)NC(=O)c1cn(CCCOC(=O)CCCCCCCCCCC(=O)OCCCn2cc(C(=O)NC(=O)OCC)c(=O)[nH]c2=O)c(=O)[nH]c1=O | > 100 | – |
| COc1cc(/C=C(\C#N)c2ccccc2)cc(OC)c1 | > 100 | – |
| N#Cc1cccnc1Cl | > 100 | – |
| CCCCCCCCCCCC(=O)OCC1OC(OC)C(NC(=O)N(CCCl)N=O)C(O)C1O (configuration not stated) | 36.8 | – |
| C=CC/C=C/C/C=C/CCCCCCCc1cccc(O)c1C(=O)O | > 100 | – |
| COc1ccc(OC)c2c(C(=O)O)c(Cc3ccccc3)ccc12 | > 100 | – |
| O=C(Nc1c(Cl)cc([N+](=O)[O-])cc1Cl)C(=O)C(C1OC(=O)c2ccccc21)[N+](=O)[O-] (configuration not stated) | > 100 | – |
| Cc1c(C(=O)/C=C/c2ccccc2)[n+](=O)c2ccccc2n1[O-] | 35.5 | – |
| N#CC1CC2(C1)OCCS2 (configuration not stated) | > 100 | – |
| C1C[OH+]CC[OH+]CC[OH+]CC[OH+]CC[OH+]1.[Cl-].[V] | > 100 | > 100 |
| COc1ccc(CC2NCCc3cc(OC)c(OC)cc32)cc1Br (configuration not stated) | > 100 | – |
| c1ccc(C2Nc3ccccc3C3OCCCC23)cc1 (configuration not stated) | 47.7 | – |

tested on: MOLT-4 leukemia; assay: inhibition of tumour cell growth, NCI panel, 48 h

| SMILES | TGI | GI50 [µM] |
| --- | --- | --- |
| O=C1[C@@H]2C(c3ccccc3F)=NO[C@@H]2C(=O)N1c1ccc(Cc2ccc(N3C(=O)[C@H]4C(c5ccccc5F)=NO[C@H]4C3=O)cc2)cc1 | > 64.4 µM | – |
| O=C(NCO)NCOCn1c(=O)n(CO)c(=O)n(CO)c1=O | > 65.9 µM | – |
| Clc1ccc2c(c1)-c1c3c(nn1-c1ccccc1)-c1ccccc1SC3O2 (configuration not stated) | > 100 µM | – |
| O=C1OC2CCCC[C@@H]2C2C[C@]34CCCCC3[C@@H](C(=O)O4)C12 (some centres not stated) | > 100 µM | – |
| CN(C)c1cc[c]([Sn]([c]2ccc(N(C)C)cc2)([c]2ccc(N(C)C)cc2)[c]2ccc(N(C)C)cc2)cc1 | 6.22 µM | 1.93 |
| C=C1C(=O)OC2/C=C(\COC(C)=O)CCC(OC(C)=O)C3=CC(OC3=O)C12 (configuration not stated) | 5.74 µM | – |
| C/C(N=NC(=S)N(C)C)=C1\C=CC=CN1O | > 56.4 µM | – |
| CCCSc1nc(COC(=O)NC)c(COC(=O)NC)n1C | 56.6 µM and > 70 µM | – |
| O=C1CCC(O)=C1N=Nc1ccccc1 | > 100 µM | – |
| CCN(CC)c1ccc(N=Nc2ccc(-c3nc4ccc[n+](C)c4s3)cc2)cc1 | 24.6 µM | – |
| NC(=O)NCc1c(C(N)=O)ncn1Cc1ccccc1 | > 100 µM | – |
| O=C(c1ccccc1)C1OC12C(=O)Nc1ccccc12 (configuration not stated) | 34.1 µM | – |
| COc1ccc2nc(NC(=O)C(=O)C(C#N)c3ccc([N+](=O)[O-])cc3)sc2c1 (configuration not stated) | > 100 µM | – |
| O=C(O)[C@H](NS(=O)(=O)c1ccc([N+](=O)[O-])cc1)c1ccccc1 | > 100 µM | – |
| CC(C)C[C@H](NC(=O)/C=C/Cn1ccc2ccccc2c1=O)B(O)O | 12.5 µM | 2.73 |
| S=C1OC2CCCC[C@H]2O1 (some centres not stated) | > 100 µM | – |
| O=C1/C(=C/c2cccc([N+](=O)[O-])c2)COc2ccc(Br)cc21 | 96 µM | – |
| CSC(C1c2ccccc2N(c2ccc(C)cc2)c2[nH]c(=O)n(C)c(=O)c21)S(=O)(=O)c1ccc(C)cc1 (configuration not stated) | > 100 µM | – |
| CCOC(=O)NC(=O)c1cn(CCCOC(=O)CCCCCCCCCCC(=O)OCCCn2cc(C(=O)NC(=O)OCC)c(=O)[nH]c2=O)c(=O)[nH]c1=O | > 100 µM | – |
| O=c1cc(NC2CCN(CCCc3ccccc3)CC2)c2cc(Cl)ccc2o1 | 37.9 µM | 8.26 |
| COc1cc(/C=C(\C#N)c2ccccc2)cc(OC)c1 | 58.6 µM | – |
| N#Cc1cccnc1Cl | > 100 µM | – |
| Nc1nc(F)nc2c1ncn2C1OC(CO)C(O)C1O (configuration not stated) | > 100 µM | – |
| CCCCCCCCCCCC(=O)OCC1OC(OC)C(NC(=O)N(CCCl)N=O)C(O)C1O (configuration not stated) | 16.1 µM | – |
| C=CC/C=C/C/C=C/CCCCCCCc1cccc(O)c1C(=O)O | > 100 µM | – |
| CCn1c(SCc2ccc(C)cc2)nnc1-c1nn(-c2ccc(Cl)cc2Cl)c(-c2ccc(Cl)cc2)c1C | 11 µM | 2.15 |
